Assay results as given in patent US4298739A, “Novel carbostyril derivatives” (priority 1977, dated 1981).

What was measured:
[1] = Concentration in blood of male beagle dogs; type: in vivo; details: 30 mg/kg water suspension; for concentration at 1 h / concentration at 2 h / concentration at 4 h / concentration at 6 h / concentration at 8 h / concentration at 12 h: dog, plasma, 30 mg/kg; for Concentration in blood: Beagle dog
Method: (§1) A water suspension of test compound was administered at the dose of 30 mg/kg to the overnight fasted male Wister rats and male beagle dogs, and after a predetermined period of time, blood was collected from said animals to obtain plasma. 2 to 3 Milliliters of 0.1 N-NaOH and 2 ml of CHCl3 were added to 1 ml of the obtained plasma, and the mixture was shaken and extracted in a shaker for 2 hours, and after centrifugal separation, the organic layer was washed with 2 ml of 0.1 N-HCl. This organic layer was then subjected to a freezing and thawing treatment, and after evaporating chloroform under nitrogen stream, the residue was redissolved in 100 μl of chloroform and spotted on a thin layer plate of "Silica Gel 60 F254 " manufactured by Merck & Co., Inc. This was developed in a chloroform: butanol mixed solvent (5:1) and determined by measuring the spots with same Rf value as the test compound according to the absorbance method by using Shimazu CS-910 Thin Layer Chromato-scanner,and therefrom the concentration (μg/ml) of test compound A in blood was determined.

rabbit platelet [2] = assay: Collagen-induced aggregation in rabbit platelets (AG-II Aggregometer); type: cell-based; details: Oryctolagus cuniculus, Platelet, read-out: Inhibition effect on collagen induced aggregation in rabbit platelet; for inhibition at 10 µM (stock): 10^-5 mole; for inhibition at 1 µM (stock): 10^-6 mole; for inhibition at 100 µM (stock): 10^-4 mole
Method: (§2) The platelet aggregation inhibitory effect is measured by using AG-II Aggregometer (manufactured by Bryston Manufacturing Co.). The blood sample used for the test is a 1/9 (by volume) mixture of sodium citrate and whole blood collected from rabbit. Said sample is subjected to 10-minute centrifugal separation at 1,000 r.p.m. to obtain a platelet rich plasma (PRP). The thus obtained PRP is separated, and the remaining blood sample is further subjected to 15-minute centrifugal separation at 3,000 r.p.m. to obtain a platelet poor plasma (PPP).
(§3) The number of platelets in the PRP is counted by the Brecher-Clonkite Method, and the PRP is diluted with the PPP to prepare a PRP sample with platelet concentration of 300,000/mm^3 for the adenosine diphosphate (ADP)-induced aggregation test. There is also prepared a PRP sample with platelet concentration of 450,000/mm^3 for the collagen-induced aggregation test.
(§4) 0.6 ml of said PRP sample is added into 0.01 ml of a solution of a test compound of a predetermined concentration and the mixture is placed in a 37° C. thermostat for one minute. Then 0.07 ml of an ADP or collagen solution is added to the mixture. Transmittance of this mixture is determined and the change of transmittance is recorded by using the aggregometer at stirrer speed of 1,100 r.p.m. In this test, Auren Beronal buffer (pH 7.35) is used for the preparation of the ADP or collagen solution. ADP is adjusted to a concentration of 7.5×10^-5 M, and the collagen solution is prepared by triturating 100 mg of collagen with 5 ml of said buffer and the supernatant is used as collagen inducer. Adenosine and acetylsalicylic acid are used as controls for the ADP-induced aggregation test and the collagen-induced aggregation test, respectively. The platelet aggregation inhibitory effect is measured in terms of percent inhibition with respect to the aggregation rate of the controls. The aggregation rate is calculated from the following formula:
(§5) Aggregation rate=(c-a)/(b-a)×100
(§6) b: transmittance of PRP containing a test compound and an aggregation inducer
(§7) The inhibitory effect of the tested compounds on collagen-induced aggregation in rabbit platelets is shown in Table 1, and such effect on ADP-induced aggregation is shown in Table 2. The compounds tested are as follows.

[3] = Concentration in blood of male Wister rats; type: in vivo; details: 30 mg/kg water suspension; for concentration at 1 h / concentration at 2 h / concentration at 4 h / concentration at 6 h / concentration at 12 h / concentration at 8 h: rat, plasma, 30 mg/kg; for Concentration in blood: Rat
Method: as §1

[4] = Acute toxicity test, oral administration to mice; type: in vivo; details: mouse, in vivo, Male mice
Method: The test compounds were administered orally to the mice and LD50 (mg/kg) of the compounds was determined.

rabbit platelet [5] = assay: ADP-induced aggregation in rabbit platelets (AG-II Aggregometer); type: cell-based; details: Oryctolagus cuniculus, Platelet, read-out: Inhibition effect on ADP-induced aggregation in rabbit platelet; for inhibition at 100 µM (stock): 10^-4 mole; for inhibition at 10 µM (stock): 10^-5 mole; for inhibition at 1 µM (stock): 10^-6 mole
Method: as §2, §3, §4, §5, §6, §7

Structure (SMILES): CC1CCCCC1N(C)C(=O)CCCOc1ccc2[nH]c(=O)ccc2c1 (stereo not shown) [compound 1, 6-{3-[N-Methyl-N-(2-methylcyclohexyl)aminocarbonyl]propoxy}carbostyril]
- concentration at 1 h ([1]; 1 hr.): 0.28 µg/mL
- concentration at 2 h ([1]; 2 hr.): 0.31 µg/mL
- concentration at 4 h ([1]; 4 hr.): 0.21 µg/mL
- concentration at 6 h [1]: 0.13 µg/mL
- concentration at 8 h [1]: 0.08 µg/mL
- concentration at 12 h [1]: 0.05 µg/mL
- inhibition at 10 µM (stock) (rabbit platelet [2]): 100%
- inhibition at 1 µM (stock) (rabbit platelet [2]): 100%
- inhibition at 0.1 µM (stock) (rabbit platelet [2]; 10^-7 mole): 21.1%
- concentration at 1 h [3]: 1.05 µg/mL
- concentration at 2 h ([3]; 2 hr.): 1.62 µg/mL
- concentration at 4 h ([3]; 4 hr.): 0.94 µg/mL
- concentration at 6 h [3]: 0.53 µg/mL
- concentration at 12 h [3]: 0.48 µg/mL
- LD50 [4]: > 1000 mg/kg
- inhibition at 100 µM (stock) (rabbit platelet [5]): 100%
- inhibition at 10 µM (stock) (rabbit platelet [5]): 73%
- inhibition at 1 µM (stock) (rabbit platelet [5]): 42.4%
- inhibition at 0.1 µM (stock) (rabbit platelet [5]; 10^-7 mole): 4.3%

Structure (SMILES): O=C1CCc2cc(OCCCC(=O)N(C3CCCCC3)C3CCCCC3)ccc2N1 [compound 18, 6-[3-(N,N-Dicyclohexylaminocarbonyl)propoxy]-3,4-dihydrocarbostyril]
- concentration at 1 h ([1]; 1 hr.): 0.36 µg/mL
- concentration at 2 h ([1]; 2 hr.): 0.23 µg/mL
- concentration at 4 h ([1]; 4 hr.): 0.32 µg/mL
- concentration at 6 h [1]: 0.17 µg/mL
- concentration at 8 h [1]: 0.13 µg/mL
- concentration at 12 h [1]: 0.06 µg/mL
- inhibition at 100 µM (stock) (rabbit platelet [2]): 87.5%
- inhibition at 10 µM (stock) (rabbit platelet [2]): 59.4%
- inhibition at 1 µM (stock) (rabbit platelet [2]): 50%
- concentration at 1 h [3]: 1.32 µg/mL
- concentration at 2 h ([3]; 2 hr.): 1.74 µg/mL
- concentration at 4 h ([3]; 4 hr.): 1.02 µg/mL
- concentration at 6 h [3]: 0.69 µg/mL
- concentration at 8 h [3]: 0.56 µg/mL
- concentration at 12 h [3]: 0.42 µg/mL
- LD50 [4]: > 1000 mg/kg
- inhibition at 100 µM (stock) (rabbit platelet [5]): 86.4%
- inhibition at 10 µM (stock) (rabbit platelet [5]): 37.5%
- inhibition at 1 µM (stock) (rabbit platelet [5]): 12.6%

Structure (SMILES): CCN(C(=O)CCCOc1ccc2[nH]c(=O)ccc2c1)c1ccccc1 [compound 20, 6-[3-(N-Ethylanilinocarbonyl)propoxy]carbostyril]
- concentration at 1 h ([1]; 1 hr.): 0.32 µg/mL
- concentration at 6 h [1]: 0.08 µg/mL
- concentration at 8 h [1]: 0.05 µg/mL
- inhibition at 100 µM (stock) (rabbit platelet [2]): 91.3%
- inhibition at 10 µM (stock) (rabbit platelet [2]): 76.3%
- inhibition at 1 µM (stock) (rabbit platelet [2]): 43.2%
- concentration at 1 h [3]: 0.95 µg/mL
- concentration at 2 h ([3]; 2 hr.): 1.37 µg/mL
- concentration at 4 h ([3]; 4 hr.): 0.92 µg/mL
- concentration at 6 h [3]: 0.46 µg/mL
- concentration at 12 h [3]: 0.28 µg/mL
- LD50 [4]: > 1000 mg/kg
- inhibition at 100 µM (stock) (rabbit platelet [5]): 82.5%
- inhibition at 10 µM (stock) (rabbit platelet [5]): 31.7%
- inhibition at 1 µM (stock) (rabbit platelet [5]): 13.5%

Structure (SMILES): CN(C(=O)CCCOc1cccc2c1CCC(=O)N2)C1CCCCC1 [compound 23, 5-[3-(N-Methyl-N-cyclohexylaminocarbonyl)propoxy]-3,4-dihydrocarbostyril]
- concentration at 1 h ([1]; 1 hr.): 0.43 µg/mL
- concentration at 2 h ([1]; 2 hr.): 0.29 µg/mL
- concentration at 4 h ([1]; 4 hr.): 0.21 µg/mL
- concentration at 6 h [1]: 0.14 µg/mL
- concentration at 8 h [1]: 0.05 µg/mL
- concentration at 12 h [1]: 0.07 µg/mL
- inhibition at 100 µM (stock) (rabbit platelet [2]): 76.5%
- inhibition at 10 µM (stock) (rabbit platelet [2]): 58.7%
- inhibition at 1 µM (stock) (rabbit platelet [2]): 13.5%
- concentration at 1 h [3]: 1.53 µg/mL
- concentration at 2 h ([3]; 2 hr.): 2.24 µg/mL
- concentration at 4 h ([3]; 4 hr.): 0.94 µg/mL
- concentration at 6 h [3]: 0.54 µg/mL
- concentration at 8 h [3]: 0.39 µg/mL
- concentration at 12 h [3]: 0.52 µg/mL
- LD50 [4]: > 1000 mg/kg
- inhibition at 100 µM (stock) (rabbit platelet [5]): 73.6%
- inhibition at 10 µM (stock) (rabbit platelet [5]): 26.1%
- inhibition at 1 µM (stock) (rabbit platelet [5]): 8.7%

Structure (SMILES): CCOC(=O)CCCOc1ccc2c(c1)CCC(=O)N2 [compound 29, 6-(3-Ethoxycarbonylpropoxy)-3,4-dihydrocarbostyril, reference compound]
- Concentration in blood ([1]; 2 hr.): 0 µg/mL
- Concentration in blood ([1]; 4 hr.): 0 µg/mL
- concentration at 1 h ([1]; 1 hr.): 0.01 µg/mL
- inhibition at 10 µM (stock) (rabbit platelet [2]): 38%
- inhibition at 1 µM (stock) (rabbit platelet [2]): 8%
- Concentration in blood ([3]; 2 hr.): 0 µg/mL
- Concentration in blood ([3]; 4 hr.): 0 µg/mL
- concentration at 1 h [3]: 0.01 µg/mL
- LD50 [4]: > 1000 mg/kg
- inhibition at 100 µM (stock) (rabbit platelet [5]): 100%
- inhibition at 1 µM (stock) (rabbit platelet [5]): 10%

Structure (SMILES): CCOC(=O)CCCOc1ccc2[nH]c(=O)ccc2c1 [compound 34, 6-(3-Ethoxycarbonylpropoxy)carbostyril, reference compound]
- Concentration in blood ([1]; 1 hr.): 0 µg/mL
- Concentration in blood ([1]; 2 hr.): 0 µg/mL
- inhibition at 100 µM (stock) (rabbit platelet [2]): 100%
- inhibition at 10 µM (stock) (rabbit platelet [2]): 86%
- inhibition at 1 µM (stock) (rabbit platelet [2]): 18%
- Concentration in blood ([3]; 2 hr.): 0 µg/mL
- Concentration in blood ([3]; 4 hr.): 0 µg/mL
- concentration at 1 h [3]: 0.01 µg/mL
- LD50 [4]: > 1000 mg/kg
- inhibition at 100 µM (stock) (rabbit platelet [5]): 100%
- inhibition at 10 µM (stock) (rabbit platelet [5]): 90%
- inhibition at 1 µM (stock) (rabbit platelet [5]): 25%

Structure (SMILES): CCN1C(=O)CCc2c(OCCCC(=O)NCc3ccccc3)cccc21 [compound 44, 1-Ethyl-5-[3-(N-benzylaminocarbonyl)propoxy]-3,4-dihydrocarbostyril, reference compound]
- inhibition at 100 µM (stock) (rabbit platelet [2]): 7%
- inhibition at 10 µM (stock) (rabbit platelet [2]): 0%
- inhibition at 1 µM (stock) (rabbit platelet [2]): 0%
- LD50 [4]: 500 to 600 mg/kg
- inhibition at 100 µM (stock) (rabbit platelet [5]): 14%
- inhibition at 10 µM (stock) (rabbit platelet [5]): 6%
- inhibition at 1 µM (stock) (rabbit platelet [5]): 0%

Structure (SMILES): CCCNC(=O)CC(C)COc1ccc2c(c1)CCC(=O)N2 (stereo not shown) [compound 45, 6-[3-(N-Propylaminocarbonyl)-2-methylpropoxy]-3,4-dihydrocarbostyril, reference compound]
- inhibition at 100 µM (stock) (rabbit platelet [2]): 12%
- inhibition at 10 µM (stock) (rabbit platelet [2]): 5%
- inhibition at 1 µM (stock) (rabbit platelet [2]): 0%
- LD50 [4]: 500 to 800 mg/kg
- inhibition at 100 µM (stock) (rabbit platelet [5]): 32%
- inhibition at 10 µM (stock) (rabbit platelet [5]): 17%
- inhibition at 1 µM (stock) (rabbit platelet [5]): 9%
